Assay [1] concerns lysosomal and autophagy genes. Put plainly: Expression analysis of lysosomal and autophagy genes in HeLa cells. In kind it is cell-based, human. As to conditions: HeLa cells treated with MK2206. The protocol: FIG. 24. […] (b) Immunoblot analysis of LC3 lipidation. […] (d) Expression analysis of lysosomal and autophagy genes in HeLa cells treated with MK2206. Gene expression was normalized relative to the housekeeping gene, GAPDH. The dashed line indicates relative gene expression in untreated cells. […] Scale bar, 10 μm (a), 50 nm (c) and 20 μm (f).
Control (Coriell Institute, USA) and JNCL fibroblasts (Gaslini Institute, Italy) were grown in DMEM (1:1, HyClone) supplemented with 10% heat-inactivated fetal bovine serum (FBS, Atlanta Biologicals), 2 mM L-glutamine, 100 U/ml penicillin and […] streptomycin (Invitrogen). […]
Total RNA was extracted from the control and JNCL fibroblasts and from WT and Cln3^Δex7-8 cortical neuron cultures using the RNEasy kit (Qiagen) according to the manufacturer's instructions. Half of the mouse brain was processed for the RNA extraction and one microgram was used for complementary DNA synthesis by QuantiTect Reverse Transcription kit (Qiagen). The primers for PCR with reverse transcription reactions are listed in Table St Quantitative real-time PCR was performed by using iQ SYBR Green Supermix on the CFX96 Touch Real-Time Detection System (Bio-Rad Laboratories). […] Relative gene expression was determined using the ΔΔCT method, normalizing to GAPDH (for human genes) and cyclophilin (for mouse genes). […]

For another assay, the system named is LAMP1. Put plainly: LAMP1 immunoblot in primary cortical astrocyte cultures. Format: cell-based, mouse. To be noted: astrocytes from WT and Cln3^Δex7-8 mice, 100 mM trehalose 4 days. The protocol: Astrocytes were isolated from P0-1 mice and plated on poly-D-lysine coated six-well plates (BD Biosciences) in the presence of DMEM high glucose, supplemented with 10% FBS and 100 U/ml penicillin and […] streptomycin. After 7 days, the glial cell layer was removed and astrocytes were plated for treatment. An amount of 100 mM of trehalose was dissolved in the media the day after and kept for 4 days. Finally, astrocytes were collected and protein extracts were analysed by western blot assay.
Brain tissue and cultured cells were collected and lysed in RIPA buffer (50 mM Tris-HCl, ph 7.4, 1% NP40, 0.5% Na-deoxycholate, 0.1% SDS, 150 mM NaCl, 2 mM EDTA and 50 mM NaF) including a cocktail of protease (Roche) and phosphatase (SIGMA) inhibitors. Protein concentrations were measured with the bicinchoninic acid protein assay kit (Pierce, Rockford, Ill.), using bovine serum albumin as standard. Lysates were separated via SDS-polyacrylamide gel electrophoresis (PAGE) and then transferred to nitrocellulose membranes. Blots were incubated in blocking buffer (5%, w/v, dried skimmed milk in Tris-buffered saline, pH 7.4 and 0.2% Tween 20, TBST) followed by overnight incubation with appropriate antibodies diluted in blocking buffer (5% dry milk). Western blot images were acquired by LAS 4000 (GE Healthcare) and quantified using ImageJ. Images have been cropped for presentation.
Background: In western blotting, separated proteins are transferred to a membrane and probed.

Assay [2] relates to Cln3^Δex7-8 mice. The assay can be described thus: Microglial activation, CD68 immunohistochemistry. Format: in vivo, mouse. The protocol: (§1) Brains were subsequently removed and postfixed overnight. Before sectioning, the brains were cryoprotected in a solution containing 30% sucrose in Tris-buffered saline (TBS: 50 mM Tris, pH 7.6). Consecutive […] floating coronal sections were collected in 96-well plates. Series of sections were then stained with primary antisera against CD68 or GFAP, followed by either rabbit anti-rat (VectorLab) and swine anti-rabbit (DAKO) secondary antibodies, and immunoreactivity detected with Vectastain ABC (avidin-biotin) kit (Vector) and diaminobenzidine as a chromogen.
Thirty non-overlapping images were captured, on three consecutive sections, through each region of interest. All RGB images were captured via a live video camera (JVC, 3CCD, KY-F55B), mounted onto a Zeiss Axioplan microscope using a ×40 objective and saved as JPEGs. All parameters including lamp intensity, video camera set-up and calibration were maintained constant throughout image capturing. Images were subsequently analysed using ImageJ analysis software (NIH), using an appropriate threshold that selected the foreground immunoreactivity above background. This threshold was then applied as a constant to all subsequent images analysed per batch of animals and reagent used to determine the specific area of immunoreactivity for each antigen in each region. This analysis was performed blind to genotype. […]

Assay [3] deals with Cln3^Δex7-8 mice. Put plainly: Astrocytosis, GFAP immunohistochemistry. Format: in vivo, mouse. To be noted: for decrease of GFAP immunoreactivity: 12 months of age. Here is the method: as §1
Thirty non-overlapping images were captured, on three consecutive sections, through each region of interest. All RGB images were captured via a live video camera (JVC, 3CCD, KY-F55B), mounted onto a Zeiss Axioplan microscope using a ×40 objective and saved as JPEGs. All parameters including lamp intensity, video camera set-up and calibration were maintained constant throughout image capturing. Images were subsequently analysed using ImageJ analysis software (NIH), using an appropriate threshold that selected the foreground immunoreactivity above background. This threshold was then applied as a constant to all subsequent images analysed per batch of animals and reagent used to determine the specific area of immunoreactivity for each antigen in each region. This analysis was performed blind to genotype. Data were plotted graphically as the mean percentage area of immunoreactivity per field±s.e.m. for each region.

The target in another assay is T1, mTORC1 (Mus musculus, UniProt Q9JLN9).
T1 construct: 100 mM) for 24 h or left untreated; endogenous in cells; host or cells: wild-type and Tsc2-/- mouse embryonic fibroblasts
The assay can be described thus: Immunoblot of mTORC1 substrates in WT and Tsc2-/- MEFs. In kind it is cell-based. To be noted: Tsc2-/- and control MEFs, trehalose 100 mM 24 h. Here is the method: (b) Quantification of TFEB subcellular localization (C, cytoplasmic; N, nuclear) after 24 h of trehalose treatment (Tre) or in untreated cells (UT). Scale bars in a, b is 40 μm. (c) Immunoblot analyses show expression levels of substrates downstream of mTORC1. Wild-type (WT) and TSC2 null MEF cells were treated with trehalose (Tre; 100 mM) for 24 h or left untreated. As controls, cells were treated with Torin 1 (300 nM) or rapamycin (300 nM) for 2 h before extracting the lysates. Phospho- and total S6K1 (P-S6K1 and T-S6K1), phospho- and total S6 (P-S6 and T-S6) and phospho- and total 4E-BP1 (P-4E-BP1 and T-4E-BP1) were detected as readouts of mTORC1 activity. […]
Brain tissue and cultured cells were collected and lysed in RIPA buffer (50 mM Tris-HCl, ph 7.4, 1% NP40, 0.5% Na-deoxycholate, 0.1% SDS, 150 mM NaCl, 2 mM EDTA and 50 mM NaF) including a cocktail of protease (Roche) and phosphatase (SIGMA) inhibitors. Protein concentrations were measured with the bicinchoninic acid protein assay kit (Pierce, Rockford, Ill.), using bovine serum albumin as standard. […] Western blot images were acquired by LAS 4000 (GE Healthcare) and quantified using ImageJ. […]

With `Cl.NC1(c2ccc(-c3nc4ccn5c(=O)[nH]nc5c4cc3-c3ccccc3)cc2)CCC1` [MK2206, 8-[4-(1-aminocyclobutyl)phenyl]-9-phenyl-1,2,4-triazolo[3,4-f][1,6]naphthyridin-3(2H)-one], the “expression of lysosomal and autophagy genes” value in assay [1] was “upregulated the expression of lysosomal and autophagy genes”.
As to `OC[C@H]1O[C@H](O[C@H]2O[C@H](CO)[C@@H](O)[C@H](O)[C@H]2O)[C@H](O)[C@@H](O)[C@@H]1O` [trehalose, a-D-glucopyranosyl a-D-glucopyranoside], in the assay with LAMP1, the LAMP1 levels entry is given as “increased LAMP1 levels”. Further, the “microglial activation (CD68)” value with Cln3^Δex7-8 mice [2] (S1BF region, 7 months of age) is recorded as “significantly rescued”. Besides, the “reduction of microglial activation (CD68)” value with Cln3^Δex7-8 mice [2] (VPM/VPL region, 12 months of age) was 48%. Further, in the assay with Cln3^Δex7-8 mice [3] (S1BF and VPM/VPL, 7 and 12 months of age), the “progressive neuroinflammation (GFAP and CD68 immunoreactivity)” value is “mitigated”. The results for the “decrease of GFAP immunoreactivity” value in the assay with Cln3^Δex7-8 mice [3] (S1BF region) and with Cln3^Δex7-8 mice [3] (VPM/VPL region) were 43% and 67%, respectively. The mTORC1 signalling result at mTORC1 was “does not alter mTORC1 signalling”.

The values are drawn from patent US10512656B2, “Compositions and methods for the treatment of lysosomal storage disorders and disorders characterized by lysosomal dysfunction” (Baylor College of Medicine, priority 2016, dated 2019).
